Data taken from article PMC11031590, “Narazaciclib, a novel multi-kinase inhibitor with potent activity against CSF1R, FLT3 and CDK6, shows strong anti-AML activity in defined preclinical models” (Scientific Reports, 2024).
pIC50: −log10 of the molar value.

Experiments:
Ba/F3-FLT3-ITD = Ba/F3-FLT3-ITD proliferation assay; assay type: cell-based, mouse
Method: The recombinant Ba/F3 cell lines overexpressing human CSF1R, or human RBM6-CSF1R, or human ETV6-CSF1R were generated using a retrovirus vector (Kyinno Co., Ltd. Beijing). The recombinant Ba/F3 lines overexpressing human Kras G12C orEGFR-L718Q mutants, and different mutant variants of FLT3 were also similarly created as well. A standard proliferation assay via CTG readout was performed according to the vendor’s instructions (KYinno Biotechnology Co., Ltd. Beijing).

OCI-M1 = assay: AML cell line in vitro proliferation assay; assay type: cell-based
Method: (§1) Narazaciclib was serially diluted with culture medium to 9 final assay concentrations from 0.01 to 100 μM. The assay was performed with both a negative control (vehicle) and a positive control (Cisplatin) in triplicate. The AML cell lines at log-growth phase were cultured in 96-well plates (black transparent flat bottom 96-well plate, Corning, Cat# 3603, FBS, ExCell Bio., Cat# FND500) in the presence of narazaciclib or Cisplatin at various concentrations for 72 h or 120 h (only for AML-193 cell line), followed by CTG readout according to the manufacturer’s instruction (CellTiter-Glo Luminescent Cell Viability Assay, Promega, Cat# G7573). Viability%=Lumdrug-Lummedium control/Lumcell control-Lummedium control×100%. Lumcell control-Lummedium controlas100%,LumMediumcontrolas0%. Proliferationfold increase=D5-LumNone treated-LumMedium control/D2LumNone treated-LumMedium control
(§2) Dose–response curves were fitted by a 4-parameter log-logistic model: Inhibition%=Bottom+Top-Bottom/1+10^logEC50-x∗HillSlope where Top and Bottom are the two asymptotes of the sigmoidal curve, EC50 is the relative IC50, concentration x is in log-10 scale and HillSlope is the slope at the EC50 point on the fitted curve. The fitted area under the curve (AUC) was calculated by: Inhibition%=Bottom+Top-Bottom/1+10^logEC50-x∗HillSlope where a represents the log10-transformed minimal concentration and b represents the log10-transformed maximal concentration. An extremely strong positive correlation between the absolute IC50 and AUC is shown in Supplemental Fig. S5.

MV-4–11 = assay: AML cell line in vitro proliferation assay; assay type: cell-based
Method: as §1, §2

AML-193 = assay: AML cell line in vitro proliferation assay; assay type: cell-based
Method: as §1, §2

MOLM-16 = assay: AML cell line in vitro proliferation assay; assay type: cell-based
Method: as §1, §2

KG-1A = assay: AML cell line in vitro proliferation assay; assay type: cell-based
Method: as §1, §2

MONOMAC-1 = assay: AML cell line in vitro proliferation assay; assay type: cell-based
Method: as §1, §2

KASUMI-6 = assay: AML cell line in vitro proliferation assay; assay type: cell-based
Method: as §1, §2

EOL1 = assay: AML cell line in vitro proliferation assay; assay type: cell-based
Method: as §1, §2

THP-1 = assay: AML cell line in vitro proliferation assay; assay type: cell-based
Method: as §1, §2

KASUMI-1 = assay: AML cell line in vitro proliferation assay; assay type: cell-based
Method: as §1, §2

OCI-AML-5 = assay: AML cell line in vitro proliferation assay; assay type: cell-based
Method: as §1, §2

OCI-AML-2 = assay: AML cell line in vitro proliferation assay; assay type: cell-based
Method: as §1, §2

KG-1 = assay: AML cell line in vitro proliferation assay; assay type: cell-based
Method: as §1, §2

MONOMAC-6 = assay: AML cell line in vitro proliferation assay; assay type: cell-based
Method: as §1, §2

HEL = assay: AML cell line in vitro proliferation assay; assay type: cell-based
Method: as §1, §2

NB4 = assay: AML cell line in vitro proliferation assay; assay type: cell-based
Method: as §1, §2

M07E = assay: AML cell line in vitro proliferation assay; assay type: cell-based
Method: as §1, §2

CMK = assay: AML cell line in vitro proliferation assay; assay type: cell-based
Method: as §1, §2

OCI-AML-3 = assay: AML cell line in vitro proliferation assay; assay type: cell-based
Method: as §1, §2

TF-1 = assay: AML cell line in vitro proliferation assay; assay type: cell-based
Method: as §1, §2

MOLM-13 = assay: AML cell line in vitro proliferation assay; assay type: cell-based
Method: as §1, §2

PLB-985 = assay: AML cell line in vitro proliferation assay; assay type: cell-based
Method: as §1, §2

[1] = area under the dose–response curve

% of Ba/F3-FLT3 (IC50) (Ba/F3-FLT3-ITD): 31.66%
pIC50 (Ba/F3-FLT3-ITD; Mus musculus): 7.02
pIC50 (OCI-M1; OCI-M1, 72 h, CTG): 4.71
pIC50 (MV-4–11; Homo sapiens, MV4-11, MV-4–11, 72 h, CTG): 6.58
pIC50 (MOLM-16; MOLM16, MOLM-16, 72 h, CTG): 5.32
pIC50 (THP-1; Homo sapiens, THP-1, 72 h, CTG): < 4.00
pIC50 (OCI-AML-5; Homo sapiens, OCI-AML-5, 72 h, CTG): 6.43
pIC50 (OCI-AML-2; Homo sapiens, OCI-AML2, OCI-AML-2, 72 h, CTG): 5.94
pIC50 (OCI-AML-3; Homo sapiens, OCI-AML-3, 72 h, CTG): 5.53
pIC50 (MOLM-13; Homo sapiens, MOLM-13, 72 h, CTG): 6.99
Structure (SMILES): CN1CCN(c2ccc(Nc3ncc4cc(C#N)c(=O)n(C5CCCC5)c4n3)cc2)CC1 [Narazaciclib, narazaciclib]
Classification by AUC (OCI-M1; OCI-M1): Insensitive (AUC ≥ 2.8, insensitive)
AUC (OCI-M1; OCI-M1, area under the dose–response curve): 3.404
Classification by AUC (MV-4–11; MV-4–11): Sensitive (AUC ≤ 2.4, sensitive)
AUC (MV-4–11; MV-4–11, area under the dose–response curve): 1.454
Classification by AUC (AML-193; AML-193): Intermediate (2.4 < AUC < 2.8, intermediate)
pIC50 (AML-193; AML-193, 120 h, CTG): 5.20
AUC (AML-193; AML-193, area under the dose–response curve): 2.514
Classification by AUC (MOLM-16; MOLM-16): Insensitive (AUC ≥ 2.8, insensitive)
AUC (MOLM-16; MOLM-16, area under the dose–response curve): 2.992
Classification by AUC (KG-1A): Sensitive (AUC ≤ 2.4, sensitive)
pIC50 (KG-1A; Homo sapiens, 72 h, CTG): 5.98
AUC (KG-1A; [1]): 2.289
Classification by AUC (MONOMAC-1; MONOMAC-1): Sensitive (AUC ≤ 2.4, sensitive)
AUC (MONOMAC-1; MONOMAC-1, area under the dose–response curve): 1.906
pIC50 (MONOMAC-1; Mono-Mac-1, MONOMAC-1, 72 h, CTG): 6.53
Classification by AUC (KASUMI-6; KASUMI-6): Sensitive (AUC ≤ 2.4, sensitive)
pIC50 (KASUMI-6; KASUMI-6, 72 h, CTG): 5.83
AUC (KASUMI-6; KASUMI-6, area under the dose–response curve): 2.251
Classification by AUC (EOL1; EOL1): Sensitive (AUC ≤ 2.4, sensitive)
AUC (EOL1; EOL1, area under the dose–response curve): 0.5917
pIC50 (EOL1; Homo sapiens, EOL1, 72 h, CTG): 7.46
Classification by AUC (THP-1; THP-1): Insensitive (AUC ≥ 2.8, insensitive)
AUC (THP-1; THP-1, area under the dose–response curve): 3.445
pIC50 (KASUMI-1; Homo sapiens, KASUMI-1, 72 h, CTG): 6.77
Classification by AUC (KASUMI-1; KASUMI-1): Sensitive (AUC ≤ 2.4, sensitive)
AUC (KASUMI-1; KASUMI-1, area under the dose–response curve): 1.307
Classification by AUC (OCI-AML-5; OCI-AML-5): Sensitive (AUC ≤ 2.4, sensitive)
AUC (OCI-AML-5; OCI-AML-5, area under the dose–response curve): 1.636
Classification by AUC (OCI-AML-2; OCI-AML-2): Sensitive (AUC ≤ 2.4, sensitive)
AUC (OCI-AML-2; OCI-AML-2, area under the dose–response curve): 2.116
pIC50 (KG-1; Homo sapiens, KG-1, 72 h, CTG): 5.75
Classification by AUC (KG-1; KG-1): Intermediate (2.4 < AUC < 2.8, intermediate)
AUC (KG-1; KG-1, area under the dose–response curve): 2.63
pIC50 (MONOMAC-6; Homo sapiens, MONO-MAC-6, MONOMAC-6, 72 h, CTG): 5.82
Classification by AUC (MONOMAC-6; MONOMAC-6): Sensitive (AUC ≤ 2.4, sensitive)
AUC (MONOMAC-6; MONOMAC-6, area under the dose–response curve): 2.356
Classification by AUC (HEL): Insensitive (AUC ≥ 2.8, insensitive)
pIC50 (HEL; Homo sapiens, 72 h, CTG): 4.82
AUC (HEL; [1]): 3.335
pIC50 (NB4; Homo sapiens, NB-4, NB4, 72 h, CTG): 5.48
Classification by AUC (NB4; NB4): Insensitive (AUC ≥ 2.8, insensitive)
AUC (NB4; NB4, area under the dose–response curve): 2.865
Classification by AUC (M07E): Intermediate (2.4 < AUC < 2.8, intermediate)
pIC50 (M07E; M-07e, 72 h, CTG): 5.31
AUC (M07E; [1]): 2.557
Classification by AUC (CMK): Sensitive (AUC ≤ 2.4, sensitive)
pIC50 (CMK; Homo sapiens, 72 h, CTG): 5.78
AUC (CMK; [1]): 2.347
Classification by AUC (OCI-AML-3; OCI-AML-3): Insensitive (AUC ≥ 2.8, insensitive)
AUC (OCI-AML-3; OCI-AML-3, area under the dose–response curve): 2.863
pIC50 (TF-1; Homo sapiens, TF-1, 72 h, CTG): 4.29
Classification by AUC (TF-1; TF-1): Insensitive (AUC ≥ 2.8, insensitive)
AUC (TF-1; TF-1, area under the dose–response curve): 3.502
Classification by AUC (MOLM-13; MOLM-13): Sensitive (AUC ≤ 2.4, sensitive)
AUC (MOLM-13; MOLM-13, area under the dose–response curve): 1.068
Classification by AUC (PLB-985; PLB-985): Insensitive (AUC ≥ 2.8, insensitive)
pIC50 (PLB-985; PLB-985, 72 h, CTG): 4.85
AUC (PLB-985; PLB-985, area under the dose–response curve): 2.988
